Measurements reported in PMC10349806 (Nature Communications, 2023).
“And” between values parts separate entries of the source, which are not always exact repeats. Equal values may be shown once.

Target: PfCRT^Dd2 (Plasmodium falciparum, UniProt Q9N623, A220S/I356T/K76T/M74I/N326S/N75E/Q271E/R371I)
Assay: Drug uptake assay, X. laevis oocytes expressing PfCRT^Dd2
Type: cell-based
Conditions: for Kd: KS^CQ; for Vmax: CQ vs protons
Protocol: Oocytes were obtained as described previously. Briefly, adult (>2 years old) female X. laevis frogs (NASCO) were anesthetized in a cooled solution of ethyl 3-amino benzoate methanesulfonate (0.1%, w/v), followed by a surgical removal of parts of the ovary. The ovary lobes were carefully dissected and small pieces of oocytes were incubated in Ca^2+-free ND96 buffer (96 mM NaCl, 2 mM KCl, 1 mM MgCl2 buffered with 5 mM HEPES/NaOH, pH 7.5) supplemented with collagenase D (0.1%, w/v; Roche), BSA (0.5%, w/v), and 9 mm Na2HPO4 at 18 °C for 14-16 h while gentle shaking. After incubation, the oocytes were carefully washed several times with ND96 buffer (96 mM NaCl, 2 mM KCl, 1.8 mM CaCl2, 1 mM MgCl2 buffered with 5 mM HEPES/NaOH, pH 7.5) supplemented with 100 mg l^−1 gentamycin). Defolliculated and healthy-looking stage V-VI oocytes were manually selected for RNA microinjection. The RNA was generated as following: The codon-optimized sequences of PfCRT variants were cloned into the pSP64T expression vector. After vector linearization using the restriction endonucleases BamHI or SalI (New England Biolabs), transcription was performed using the in vitro SP6 mMessage mMachine Kit (Ambion)[34]. The obtained RNA was kept at −80 °C and diluted with nuclease-free water to a concentration of 0.6 μg μl^−1. Precision-bore glass capillary tubes (3.5-inch glass capillaries; Drummond Scientific Co.) were pulled on a vertical puller (P-87 Flaming/Brown micropipette puller, Sutter Instrument Co.), graduated, and placed on a microinjector (Nanoject II Auto-Nanoliter Injector, Drummond Scientific Co.). 50 nl of nuclease-free water alone (control oocytes) or 50 nl of 0.6 μg μl^−1 RNA were injected under stereomicroscopic control. Injected oocytes were incubated for 46–72 h at 18 °C with twice-daily buffer changes before usage in experiments.
Drug uptake assays were performed as described previously[21],[22],[24],[34]. […] The direction of radio-labeled drug transport is here from the mostly acidic extracellular solution (pH 4.5 or 6.0, as indicated) into the oocyte cytosol (pH ∼ 7.2), which corresponds to the efflux of drug from the acidic digestive vacuole (pH 5.2) into the parasite cytoplasm (pH 7.2). The topology of PfCRT in the oolemma is such that both the N- and C-terminus face the extracellular milieu[3],[22]. In the parasite, the N- and C-terminus face the lumen of the digestive vacuole. […] For determination of the amount of drug uptake for each oocyte, the reaction medium was removed and the oocytes were washed three times with 2 ml of ice-cold ND96 buffer. Each oocyte was individually transferred to a scintillation vial containing 5% sodium dodecyl sulfate (200 μl) for lysis. […] Oocytes that were injected with water instead of RNA were analyzed in parallel, representing the uptake of a drug by diffusion and/or endogenous permeation pathways. The resulting value represents the “background“ level of drug accumulation in oocytes (in-depth discussion in[22]). The specific PfCRT-mediated uptake was determined by subtracting the corresponding background value measured in water-injected oocytes from that of PfCRT-expressing oocytes. In all cases, at least three separate experiments were performed on oocytes from different frogs (biological replicate), and for each condition in an experiment, measurements were made from 10 oocytes per treatment. For pH 5.5, 6.0, and 6.5, ND96 was buffered with 5 mM MES/Tris base. For pH 4.5, 5 mM Homo-Pipes was used as a buffer and 5 mM HEPES for uptake at pH 7.0.

[1] = mixed (partial) model, mean ± SEM
[2] = PfCRTDd2, 50 µM CQ, 1 h, mean ± SEM

Sequence of PfCRT^Dd2 (Q9N623 whole entry A220S/I356T/K76T/M74I/N326S/N75E/Q271E/R371I): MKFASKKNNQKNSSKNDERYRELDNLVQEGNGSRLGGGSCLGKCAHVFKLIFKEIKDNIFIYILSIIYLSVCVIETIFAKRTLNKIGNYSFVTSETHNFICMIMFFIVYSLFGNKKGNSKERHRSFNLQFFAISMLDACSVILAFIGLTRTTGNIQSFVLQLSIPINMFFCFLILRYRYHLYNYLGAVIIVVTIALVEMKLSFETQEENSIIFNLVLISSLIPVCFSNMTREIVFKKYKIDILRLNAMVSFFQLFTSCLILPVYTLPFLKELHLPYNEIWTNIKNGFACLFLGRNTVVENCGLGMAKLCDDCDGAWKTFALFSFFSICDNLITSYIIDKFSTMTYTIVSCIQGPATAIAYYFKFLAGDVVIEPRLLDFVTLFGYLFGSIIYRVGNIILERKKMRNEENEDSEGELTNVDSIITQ

With `CCN(CC)CCCC(C)Nc1ccnc2cc(Cl)ccc12` (centres unmarked) [CQ, chloroquine] the “v-1 pH 6.0” value (500 µM CQ, Lineweaver-Burk) was 0.05 (pmol oocyte-1 h-1)-1, the “inflection point in the weakly acidic pH range” value (CQ transport vs pH) was ~ 5.2 pH and the “PfCRTDd2 transport activity pH 4.5” value (CQ uptake, X. laevis oocytes expressing PfCRTDd2, pH 4.5, individual replicates (Fig 6b)) was 0.81 pmol oocyte-1 h-1 and 1.13 pmol oocyte-1 h-1 and 0.91 pmol oocyte-1 h-1 and 1.51 pmol oocyte-1 h-1 and 1.64 pmol oocyte-1 h-1 and 1.57 pmol oocyte-1 h-1. The “PfCRTDd2 transport activity pH 4.5” value (CQ uptake, X. laevis oocytes expressing PfCRTDd2, pH 4.5, individual replicates (source data Fig 1d left)) was 0.89 pmol oocyte-1 h-1 and 0.81 pmol oocyte-1 h-1 and 1.13 pmol oocyte-1 h-1 and 0.91 pmol oocyte-1 h-1 and 1.51 pmol oocyte-1 h-1 and 1.64 pmol oocyte-1 h-1, the “PfCRTDd2 transport activity pH 6.0” value (CQ uptake, X. laevis oocytes expressing PfCRTDd2, pH 6.0, individual replicates (Fig 6b)) was 3.69 pmol oocyte-1 h-1 and 3.79 pmol oocyte-1 h-1 and 3.00 pmol oocyte-1 h-1 and 3.40 pmol oocyte-1 h-1 and 3.90 pmol oocyte-1 h-1 and 6.11 pmol oocyte-1 h-1 and 4.28 pmol oocyte-1 h-1 and 5.58 pmol oocyte-1 h-1 and 6.47 pmol oocyte-1 h-1 and 3.37 pmol oocyte-1 h-1 and 3.28 pmol oocyte-1 h-1 and 4.53 pmol oocyte-1 h-1 and 3.68 pmol oocyte-1 h-1 and 5.95 pmol oocyte-1 h-1 and 11.50 pmol oocyte-1 h-1 and 6.00 pmol oocyte-1 h-1 and 4.23 pmol oocyte-1 h-1 and 6.19 pmol oocyte-1 h-1 and 4.62 pmol oocyte-1 h-1 and 6.53 pmol oocyte-1 h-1 and the “PfCRTDd2 transport activity pH 6.0” value (CQ uptake, X. laevis oocytes expressing PfCRTDd2, pH 6.0, individual replicates (source data Fig 1d left)) was 5.87 pmol oocyte-1 h-1 and 4.37 pmol oocyte-1 h-1 and 4.87 pmol oocyte-1 h-1 and 4.94 pmol oocyte-1 h-1 and 5.55 pmol oocyte-1 h-1 and 3.80 pmol oocyte-1 h-1 and 3.69 pmol oocyte-1 h-1 and 3.79 pmol oocyte-1 h-1 and 3.00 pmol oocyte-1 h-1 and 3.40 pmol oocyte-1 h-1 and 3.90 pmol oocyte-1 h-1 and 6.11 pmol oocyte-1 h-1 and 4.28 pmol oocyte-1 h-1 and 5.58 pmol oocyte-1 h-1 and 6.47 pmol oocyte-1 h-1 and 3.37 pmol oocyte-1 h-1 and 3.28 pmol oocyte-1 h-1 and 4.53 pmol oocyte-1 h-1 and 3.68 pmol oocyte-1 h-1 and 5.95 pmol oocyte-1 h-1. The “PfCRTDd2 transport activity pH 4.5 with preincubation 1 h at pH 4.5” value (CQ uptake, independent samples) was 5.80 pmol oocyte-1 h-1 and 5.85 pmol oocyte-1 h-1 and 2.93 pmol oocyte-1 h-1, the “PfCRTDd2 transport activity pH 4.5 without preincubation” value (CQ uptake, independent samples) was 5.79 pmol oocyte-1 h-1 and 5.26 pmol oocyte-1 h-1 and 2.99 pmol oocyte-1 h-1 and the Kd [1] was 320 ± 100 µM. For the same compound, the Kd (noncompetitive (partial) model, called KM, mean ± SEM) was 220 ± 25 µM, the “Activity at pH 4.5” value [2] was 1.20 ± 0.10 pmol h-1 oocyte-1 and the “Activity at pH 6.0” value [2] was 5.05 ± 0.23 pmol h-1 oocyte-1. For the same compound, the R-value (PfCRTDd2, CQ transport at pH 4.5 / pH 6.0) was ~ 0.2 and 0.24 ± 0.01, the “Vmax ± SEM” value (PfCRT^Dd2, pH 4.5) was 14 ± 2 pmol h^−1 oocyte ^−1 and the “Vmax ± SEM” value (PfCRT^Dd2, pH 6.0) was 32 ± 2 pmol h^−1 oocyte ^−1. The “PfCRTDd2 R-value” (R-value from transport activity at pH 4.5 and pH 6.0, individual replicates (source data Fig 1d left)) was 0.23 and 0.27 and 0.25, the “PfCRTDd2 R-value” (R-value from transport activity at pH 4.5 and pH 6.0, oocytes expressing PfCRTDd2, source data Fig 1d left) was 0.25 and the “pH of maximal CQ transport activity” value (bell-shaped curve, pH 4.5 to 7.0, 50 µM CQ) was 6.2 ± 0.3 pH. The “CQ transport activity, oocytes pre-treated 1 h at pH 4.5 vs untreated” value (in words) was “no significant differences”, the Vmax [1] was 45 ± 9 pmol h^−1 oocyte^−1 and the α (mixed (partial) model, factor by which KS values change when other substrate is bound) was 0.53 ± 0.26. The β (mixed (partial) model, factor by which Vmax is affected by the inhibitor) was 0.27 ± 0.06, the Vmax (noncompetitive (partial) model, mean ± SEM) was 40 ± 4 pmol h^−1 oocyte^−1 and the β (noncompetitive (partial) model, factor by which Vmax is affected by bound proton) was 0.36 ± 0.02. For the same compound, the “PfCRTDd2 transport activity pH 4.5” value (pH 4.5, individual replicates (Fig 6a)) was 0.82 pmol oocyte-1 h-1 and 2.03 pmol oocyte-1 h-1 and 1.25 pmol oocyte-1 h-1 and 0.75 pmol oocyte-1 h-1 and 1.02 pmol oocyte-1 h-1 and 0.89 pmol oocyte-1 h-1 and 0.81 pmol oocyte-1 h-1 and 1.13 pmol oocyte-1 h-1 and 0.91 pmol oocyte-1 h-1 and 1.51 pmol oocyte-1 h-1 and 1.64 pmol oocyte-1 h-1 and 1.57 pmol oocyte-1 h-1 and 1.05 pmol oocyte-1 h-1 and 1.43 pmol oocyte-1 h-1, the “PfCRTDd2 transport activity pH 4.5” value (pH 4.5, individual replicates, Fig 6b) was 0.82 pmol oocyte-1 h-1 and 2.03 pmol oocyte-1 h-1 and 1.25 pmol oocyte-1 h-1 and 0.75 pmol oocyte-1 h-1 and 1.02 pmol oocyte-1 h-1 and 0.89 pmol oocyte-1 h-1 and 1.05 pmol oocyte-1 h-1 and 1.43 pmol oocyte-1 h-1 and the “PfCRTDd2 transport activity pH 4.5” value (pH 4.5, oocytes expressing PfCRTDd2, individual replicate values, source data Fig 1d left) was 1.57 pmol oocyte-1 h-1. For the same compound, the “PfCRTDd2 transport activity pH 4.5” value (pH 4.5, single replicates, Fig 1d left) was 2.03 pmol oocyte-1 h-1 and 1.25 pmol oocyte-1 h-1 and 0.75 pmol oocyte-1 h-1 and 1.02 pmol oocyte-1 h-1 and 1.05 pmol oocyte-1 h-1 and 1.43 pmol oocyte-1 h-1 and 0.82 pmol oocyte-1 h-1, the “PfCRTDd2 R-value” (pH 4.5 vs pH 6.0, Fig 1d left) was 0.27 and 0.30 and 0.19 and 0.23 and 0.17 and 0.15 and the “PfCRTDd2 transport activity pH 6.0” value (pH 6.0, individual replicates, Fig 6b) was 5.64 pmol oocyte-1 h-1 and 4.84 pmol oocyte-1 h-1 and 7.93 pmol oocyte-1 h-1 and 4.17 pmol oocyte-1 h-1 and 7.55 pmol oocyte-1 h-1 and 4.19 pmol oocyte-1 h-1 and 4.00 pmol oocyte-1 h-1 and 4.20 pmol oocyte-1 h-1 and 4.01 pmol oocyte-1 h-1 and 4.51 pmol oocyte-1 h-1 and 5.87 pmol oocyte-1 h-1 and 4.37 pmol oocyte-1 h-1 and 4.87 pmol oocyte-1 h-1 and 4.94 pmol oocyte-1 h-1 and 5.55 pmol oocyte-1 h-1 and 3.80 pmol oocyte-1 h-1 and 4.33 pmol oocyte-1 h-1 and 4.86 pmol oocyte-1 h-1 and 6.59 pmol oocyte-1 h-1 and 6.15 pmol oocyte-1 h-1 and 4.02 pmol oocyte-1 h-1 and 5.29 pmol oocyte-1 h-1 and 5.21 pmol oocyte-1 h-1. For the same compound, the “PfCRTDd2 transport activity pH 6.0” value (pH 6.0, oocytes expressing PfCRTDd2, individual replicate values, source data Fig 1d left) was 11.50 pmol oocyte-1 h-1 and 6.00 pmol oocyte-1 h-1 and 4.23 pmol oocyte-1 h-1 and 6.19 pmol oocyte-1 h-1 and 4.62 pmol oocyte-1 h-1 and 6.53 pmol oocyte-1 h-1, the “PfCRTDd2 transport activity pH 6.0” value (pH 6.0, single replicates, Fig 1d left) was 5.64 pmol oocyte-1 h-1 and 4.84 pmol oocyte-1 h-1 and 7.93 pmol oocyte-1 h-1 and 4.17 pmol oocyte-1 h-1 and 7.55 pmol oocyte-1 h-1 and 4.19 pmol oocyte-1 h-1 and 4.00 pmol oocyte-1 h-1 and 4.20 pmol oocyte-1 h-1 and 4.01 pmol oocyte-1 h-1 and 4.51 pmol oocyte-1 h-1 and 4.33 pmol oocyte-1 h-1 and 4.86 pmol oocyte-1 h-1 and 6.59 pmol oocyte-1 h-1 and 6.15 pmol oocyte-1 h-1 and 4.02 pmol oocyte-1 h-1 and 5.29 pmol oocyte-1 h-1 and 5.21 pmol oocyte-1 h-1 and the “PfCRTDd2 R-value” (ratio of activity pH 4.5 / pH 6.0) was 0.15 and 0.27 and 0.30 and 0.19 and 0.23 and 0.17. The “PfCRTDd2 R-value” (ratio of transport activity pH 4.5 to pH 6.0, individual replicates (Fig 6b)) was 0.27 and 0.25 and the “PfCRTDd2 R-value” (transport activity pH 4.5 relative to pH 6.0 (Fig 6a)) was 0.15 and 0.27 and 0.30 and 0.19 and 0.23 and 0.25 and 0.17.
